Results from patent publication US4293557A, “Antiulcer phenoxypropylamine derivatives” (Teikoku Hormone Mfg. Co., Ltd., priority 1979, dated 1981).

target: T1, histamine H2 receptor (Cavia porcellus, UniProt P47747); experiment: Measurement of histamine H2 receptor antagonizing activity (isolated right atrium, histamine dose-response of heart beat); design: species or system Hartley; conditions: isolated guinea pig right atrium; test compound 1×10^-5 M; negative logarithm of molar concentration required to double the histamine concentration; Van Rossum method
T1 construct: histamine-induced chronotropic response, pA2
Method: (1) Measurement of histamine H2 receptor antagonizing activity
A guinea pig, Hartley, (male 400-550 g) was struck at the head to let out blood, and the heart was enucleated. The right atrium was separated in a Tyrod solution saturated with oxygen, and a silk thread was attached to its both ends. Using the silk threads at both ends, the atrium was suspended under a tension of 700 mg in a Magnus tube (25 ml) containing a Tyrod solution maintained at 36° C. through which mixture of 95% of O2 and 5% of CO2 was passed. The contracting motion of the atrium was recorded by a force-displacement transducer, and the number of heart beats was calculated.
Histamine (used in the form of diphosphate; the same hereinbelow) was cumulatively added to the Magnus tube in a concentration of 1×10^-8 M to 1×10^-4 M in such an amount that the logarithm of the amount provides an equal interval of 1/2, until a maximum increase in heart beat was obtained. Thus, the dose-response curve of histamine was obtained. The inside of the Magnus tube was washed several times with a Tyrod solution, and the atrium was stabilized for 1 hour. Then, the above procedure was repeated to obtain the dose-response curve of histamine again. The inside of the Magnus tube was washed several times, and the tissues were stabilized for 50 minutes. Then, a test compound (1×10^-5 M) was added to the Magnus tube, and after 20 minutes, the dose-response curve of histamine in the presence of the test compound was obtained.
The PA2 value (the negative logarithm of the molar concentration of the test compound required to double the concentration of histamine in the Magnus tube required to induce a certain reaction) was calculated from the dose-response curve of histamine obtained in the second operation and the dose-response curve of histamine in the presence of the test compound in accordance with the method of J. M. Van Rossum (Arch. int. Pharmacodyn., 143, 299, 1963).

T1 sequence (P47747 whole entry): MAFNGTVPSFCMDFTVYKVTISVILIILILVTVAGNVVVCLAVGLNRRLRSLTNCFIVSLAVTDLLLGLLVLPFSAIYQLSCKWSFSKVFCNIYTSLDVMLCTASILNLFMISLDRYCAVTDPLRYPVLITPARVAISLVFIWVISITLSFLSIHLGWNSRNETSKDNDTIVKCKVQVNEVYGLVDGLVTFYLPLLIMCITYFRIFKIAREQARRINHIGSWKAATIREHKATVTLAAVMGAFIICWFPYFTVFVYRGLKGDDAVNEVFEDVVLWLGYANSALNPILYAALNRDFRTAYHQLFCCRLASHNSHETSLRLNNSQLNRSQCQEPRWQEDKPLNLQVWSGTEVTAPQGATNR

Row | PA2 | Compound
1 | 6.50 | O=CNCCCOc1cccc(CN2CCCCC2)c1 [C, N-[3-[3-(1-Piperidinylmethyl)phenoxy]propyl]formamide]
2 | 6.52 | CC(=O)NCCCOc1cccc(CN2CCCCC2)c1 [H, N-[3-[3-(1-Piperidinylmethyl)phenoxy]propyl]acetamide]
3 | 5.97 | CC(=O)NCCCOc1cccc(C(C)N2CCCCC2)c1 (centres unmarked) [I, N-[3-[3-[1-(1-Piperidinyl)ethyl]phenoxy]propyl]acetamide]
4 | 6.04 | CCC(=O)NCCCOc1cccc(C(C)N2CCCC2)c1 (centres unmarked) [J, N-[3-[3-[1-(1-Pyrrolidinyl)ethyl]phenoxy]propyl]propionamide]
5 | 5.83 | CC(c1cccc(OCCCNC(=O)CO)c1)N1CCCC1 (centres unmarked) [K, N-[3-[3-[1-(1-Pyrrolidinyl)ethyl]phenoxy]propyl]hydroxyacetamide]
6 | 6.79 | O=C(CO)NCCCOc1cccc(CN2CCCCC2)c1 [L, N-[3-[3-(1-Piperidinylmethyl)phenoxy]propyl]hydroxyacetamide]
7 | 6.29 | O=C(CO)NCCCOc1cccc(CN2CCCCCC2)c1 [M, N-[3-[3-(1-Perhydroazepinylmethyl)phenoxy]propyl]hydroxyacetamide]
8 | 6.62 | COCC(=O)NCCCOc1cccc(CN2CCCCC2)c1 [O, N-[3-[3-(1-Piperidinylmethyl)phenoxy]propyl]methoxyacetamide]
9 | 6.77 | CCC(=O)OCC(=O)NCCCOc1cccc(CN2CCCCC2)c1 [S, N-[3-[3-(1-Piperidinylmethyl)phenoxy]propyl]propionyloxyacetamide]
10 | 6.74 | O=C(COC(=O)c1ccccc1)NCCCOc1cccc(CN2CCCCC2)c1 [T, N-[3-[3-(1-Piperidinylmethyl)phenoxy]propyl]benzoyloxyacetamide]
11 | 6.80 | O=C(COC(=O)c1ccc(Cl)c(Cl)c1)NCCCOc1cccc(CN2CCCCCC2)c1 [U, N-(3,4-Dichlorobenzoyloxyacetyl)-3-[3-(1-perhydroazepinylmethyl)phenoxy]propylamine]

Further lines, the compound ahead of its results:

Row | Compound | PA2
12 | CC(c1cccc(OCCCNC=O)c1)N1CCCC1 (centres unmarked) [A, N-[3-[3-[1-(1-Pyrrolidinyl)ethyl]phenoxy]propyl]formamide] | 6.12
13 | CCC(c1cccc(OCCCNC=O)c1)N1CCCC1 (centres unmarked) [B] | 6.49
14 | CC(c1cccc(OCCCNC=O)c1)N1CCCCCC1 (centres unmarked) [D, N-[3-[3-(1-(1-Perhydroazepinyl)ethyl]phenoxy]propyl]formamide] | 6.14
15 | CC(c1cccc(OCCCNC=O)c1)N1CCC(O)C1 (centres unmarked) [E] | 5.99
16 | CC(=O)NCCCOc1cccc(C(C)N2CCCC2)c1 (centres unmarked) [F, N-[3-[3-[1-(1-Pyrrolidinyl)ethyl]phenoxy]propyl]acetamide] | 6.16
17 | CCC(c1cccc(OCCCNC(C)=O)c1)N1CCCC1 (centres unmarked) [G, N-[3-[3-[1-(1-Pyrrolidinyl)propyl]phenoxy]propyl]acetamide] | 6.47
18 | CC(c1cccc(OCCCNC(=O)CCN)c1)N1CCCC1 (centres unmarked) [N, N-(3-Aminopropionyl)-3-[3-[1-(1-pyrrolidinyl)ethyl]phenoxy]propylamine] | 6.26
19 | CC(=O)OCC(=O)NCCCOc1cccc(C(C)N2CCCC2)c1 (centres unmarked) [P, N-[3-[3-[1-(1-Pyrrolidinyl)ethyl]phenoxy]propyl]acetoxyacetamide] | 6.11
20 | CC(=O)OCC(=O)NCCCOc1cccc(CN2CCCCC2)c1 [Q, N-[3-[3-(1-Piperidinylmethyl)phenoxy]propyl]acetoxyacetamide] | 7.10
21 | CC(=O)OCC(=O)NCCCOc1cccc(CN2CCCCCC2)c1 [R, N-[3-[3-(1-Perhydroazepinylmethyl)phenoxy]propyl]acetoxyacetamide] | 6.28

system: not listed separately; experiment: in vivo; conditions: mouse, oral, 5% Tween 80 suspension, male ddY mice 19-22 g, Litchfield-Wilcoxon method

Row | Compound | LD50 at 72 h [mg/kg]
22 | CC(c1cccc(OCCCNC=O)c1)N1CCCC1 (centres unmarked) [A, N-[3-[3-[1-(1-Pyrrolidinyl)ethyl]phenoxy]propyl]formamide] | 2500
23 | CC(=O)NCCCOc1cccc(C(C)N2CCCC2)c1 (centres unmarked) [F, N-[3-[3-[1-(1-Pyrrolidinyl)ethyl]phenoxy]propyl]acetamide] | 2100
